Experiments:
MDA-MB-436 = assay: Cell growth inhibition, MDA-MB-436 breast cancer cells (WST-8); type: cell-based; details: Homo sapiens, MDA-MB-436, 96 h; 4 days; read-out: IC50 (nM) MDA-MB-436 Cell Line (WST assay)
Protocol: All the breast cancer cell lines were obtained from the ATCC. Cell viability was determined using the WST-8 (2-(2-methoxy-4-nitrophenyl)-3-(4-nitrophenyl)-5-(2,4-disulfophenyl)-2H-tetrazolium, monosodium salt) based Cell Counting-8 Kit (Dojindo Molecular Technologies, Inc., Rockville, Md.) according to the manufacture's instruction. […] The absorbance was measured at 450 nm using a SPECTRAmax PLUS plate reader (Molecular Devices, Sunnyvale, Calif.). The IC50 was calculated using the GraphPad Prism 5 software.

recombinant BRD4 BD2 = target: T1, recombinant BRD4 BD2 (Homo sapiens, UniProt O60885); assay: Competitive fluorescence-polarization (FP) binding assay, BRD4 BD2; details: competitive FP assay; protein 6 nM, probe […]; read-out: IC50 (nM) BRD4 BD2; also: probe 1.5 nM
T1 construct: for recombinant BRD4 BD1 and BRD4 BD2 proteins
Procedure, shortened: (§1)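 Buffer: 100 mM potassium phosphate, pH 6.5, 0.01% Triton X-100; compounds added in buffer with 40% ethylene glycol to preformed complex of fluorescent probe with BRD4 BD1 (10 nM final) or BD2 (6 nM final). After 30 min at room temperature, polarization read. IC50 from nonlinear fits of competition curves, with Ki.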

MOLM-13 = assay: Cell growth inhibition, MOLM-13 leukemia cells (CellTiter-Glo); type: cell-based; details: Homo sapiens, MOLM-13, 96 h; 4 days; read-out: IC50 (nM) MOLM-13 Cell Line (CellTiter-Glo assay)
Protocol: Cell growth inhibitory activity of representative Compounds of the Disclosure was determined using CellTiter-Glo® Luminescent Cell Viability Assay. […] Cell viability was determined using the CellTiter-Glo® Luminescent Cell Viability Assay Kit (Promega, Madison, Wis.) according to the manufacture's instruction. Briefly, a volume of CellTiter-Glo® Reagent equal to the volume of cell culture medium was added to each well, and then the plates were incubated at room temperature for 10-20 minutes. The luminescent signal was measured using a Tecan Infinite M1000 multimode microplate reader (Tecan, Morrisville, N.C.). The half maximal inhibitory concentration (IC50) was calculated using the GraphPad Prism 5 software (GraphPad Software, La Jolla, Calif.).

recombinant BRD4 BD1 = target: T2, recombinant BRD4 BD1 (Homo sapiens, UniProt O60885); assay: Competitive fluorescence-polarization (FP) binding assay, BRD4 BD1; details: competitive FP assay; protein 10 nM, probe […]; read-out: IC50 (nM) BRD4 BD1; also: probe 1.5 nM
T2 construct: for recombinant BRD4 BD1 and BRD4 BD2 proteins
Procedure, shortened: as §1

| SMILES | IC50 (MDA-MB-436) [nM] | IC50 (recombinant BRD4 BD2) [nM] | IC50 (MOLM-13) [nM] | IC50 (recombinant BRD4 BD1) [nM] |
| --- | --- | --- | --- | --- |
| COc1cc2c(cc1-c1c(C)noc1C)[nH]c1nc(C)nc(Nc3c(C#N)cnn3C)c12 [Cpd. No. 174, 5-((7-(3,5-dimethylisoxazol-4-yl)-6-methoxy-2-methyl-9H-pyrimido[4,5-b]indol-4-yl)amino)-1-methyl-1H-pyrazole-4-carbonitrile] | 118 | 117 | 108 | 142 |
| COc1cc2c(cc1-c1c(C)noc1C)[nH]c1nc(C)nc(Nc3ccccc3)c12 [Cpd. No. 226, 7-(3,5-dimethylisoxazol-4-yl)-6-methoxy-2-methyl-N-phenyl-9H-pyrimido[4,5-b]indol-4-amine] | 91 | 20 | 94 | 21 |
| COc1ccc2c(Nc3nc(C)nc4[nH]c5cc(-c6c(C)noc6C)c(OC)cc5c34)nn(C)c2c1 [Cpd. No. 19, 7-(3,5-Dimethylisoxazol-4-yl)-6-methoxy-N-(6-methoxy-1-methyl-1H-indazol-3-yl)-2-methyl-9H-pyrimido[4,5-b]indol-4-amine] | 323 | 613 | 109 | 200 |
| COc1cc2c(cc1-c1c(C)noc1C)[nH]c1nc(C)nc(Nc3cc(C)nn3C(C)C)c12 [Cpd. No. 9, 7-(3,5-Dimethylisoxazol-4-yl)-N-(1-isopropyl-3-methyl-1H-pyrazol-5-yl)-6-methoxy-2-methyl-9H-pyrimido[4,5-b]indol-4-amine] | 29.6 | 6.3 | 5 | 6.1 |
| CCn1nc(C2CC2)c(F)c1Nc1nc(C)nc2[nH]c3cc(-c4c(C)noc4C)c(OC)cc3c12 [Cpd. No. 250, N-(3-cyclopropyl-1-ethyl-4-fluoro-1H-pyrazol-5-yl)-7-(3,5-dimethylisoxazol-4-yl)-6-methoxy-2-methyl-9H-pyrimido[4,5-b]indol-4-amine] | 67 | 14 | 21 | 12 |
| CCc1nn(CC)c(CC)c1Nc1nc(C)nc2[nH]c3cc(-c4c(C)noc4C)c(OC)cc3c12 [Cpd. No. 241, 7-(3,5-dimethylisoxazol-4-yl)-6-methoxy-2-methyl-N-(1,3,5-triethyl-1H-pyrazol-4-yl)-9H-pyrimido[4,5-b]indol-4-amine] | 76 | 29 | 33 | 16 |
| COc1cc2c(cc1-c1c(C)noc1C)[nH]c1nc(C)nc(Nc3cccc4nc(C)ccc34)c12 [Cpd. No. 228, 7-(3,5-dimethylisoxazol-4-yl)-6-methoxy-2-methyl-N-(2-methylquinolin-5-yl)-9H-pyrimido[4,5-b]indol-4-amine] | 129 | 26 | 87 | 25 |
| COc1cc2c(cc1-c1c(C)noc1C)[nH]c1nc(C)nc(Nc3cccc4c3cnn4C)c12 [Cpd. No. 235, 7-(3,5-dimethylisoxazol-4-yl)-6-methoxy-2-methyl-N-(1-methyl-1H-indazol-4-yl)-9H-pyrimido[4,5-b]indol-4-amine] | 146 | 52 | 74 | 41 |
| COc1cc2c(cc1-c1c(C)noc1C)[nH]c1nc(C)nc(Nc3ccc(F)c(Cl)c3)c12 [Cpd. No. 107, N-(3-chloro-4-fluorophenyl)-7-(3,5-dimethylisoxazol-4-yl)-6-methoxy-2-methyl-9H-pyrimido[4,5-b]indol-4-amine] | 229 | 33 | 8 | 92 |
| COc1cc2c(cc1-c1c(C)noc1C)[nH]c1nc(C)nc(Nc3ccc4c(c3)N(C)CC4)c12 [Cpd. No. 232, 7-(3,5-dimethylisoxazol-4-yl)-6-methoxy-2-methyl-N-(1-methylindolin-6-yl)-9H-pyrimido[4,5-b]indol-4-amine] | 238 | 52 | 62 | 29 |
| CCn1nc(C)c(C)c1Nc1nc(C)nc2[nH]c3cc(-c4c(C)noc4C)c(OC)cc3c12 [Cpd. No. 186, 7-(3,5-dimethylisoxazol-4-yl)-N-(1-ethyl-3,4-dimethyl-1H-pyrazol-5-yl)-6-methoxy-2-methyl-9H-pyrimido[4,5-b]indol-4-amine] | 132 | 55.1 | 27.1 | 33.9 |
| COc1cc2c(cc1-c1c(C)noc1C)[nH]c1nc(C)nc(Nc3cccc4[nH]ccc34)c12 [Cpd. No. 220, 7-(3,5-dimethylisoxazol-4-yl)-N-(1H-indol-4-yl)-6-methoxy-2-methyl-9H-pyrimido[4,5-b]indol-4-amine] | 72 | 9 | 37 | 17 |
| CCn1nc(C2CC2)c(C)c1Nc1nc(C)nc2[nH]c3cc(-c4c(C)noc4C)c(OC)cc3c12 [Cpd. No. 145, N-(3-Cyclopropyl-1-ethyl-4-methyl-1H-pyrazol-5-yl)-7-(3,5-dimethylisoxazol-4-yl)-6-methoxy-2-methyl-9H-pyrimido[4,5-b]indol-4-amine] | 170 | 56.9 | 69.5 | 18.9 |
| COc1cc2c(cc1-c1c(C)noc1C)[nH]c1nc(C)nc(Nc3nn(C)c4cc(F)ccc34)c12 [Cpd. No. 59, 7-(3,5-Dimethylisoxazol-4-yl)-N-(6-fluoro-1-methyl-1H-indazol-3-yl)-6-methoxy-2-methyl-9H-pyrimido[4,5-b]indol-4-amine] | 535 | 174 | 401 | 90.5 |
| COc1cc2c(cc1-c1c(C)noc1C)[nH]c1nc(C)nc(Nc3cccc4cnccc34)c12 [Cpd. No. 221, 7-(3,5-dimethylisoxazol-4-yl)-N-(isoquinolin-5-yl)-6-methoxy-2-methyl-9H-pyrimido[4,5-b]indol-4-amine] | 209 | 57 | 189 | 49 |
| COc1cc2c(cc1-c1c(C)noc1C)[nH]c1nc(C)nc(Oc3ccnc4ccccc34)c12 [Cpd. No. 104, 4-(6-methoxy-2-methyl-4-(quinolin-4-yloxy)-9H-pyrimido[4,5-b]indol-7-yl)-3,5-dimethylisoxazole] | 3.4 | 810 | 603 | > 1000 |
| COc1cc2c(cc1-c1c(C)noc1C)[nH]c1nc(C)nc(Nc3c(F)c(C4CC4)nn3C)c12 [Cpd. No. 249, N-(3-cyclopropyl-4-fluoro-1-methyl-1H-pyrazol-5-yl)-7-(3,5-dimethylisoxazol-4-yl)-6-methoxy-2-methyl-9H-pyrimido[4,5-b]indol-4-amine] | 302 | 99 | 159 | 29 |
| COc1cc2c(cc1-c1c(C)noc1C)[nH]c1nc(C)nc(Nc3cnc(C)n3C)c12 [Cpd. No. 171, N-(1,2-dimethyl-1H-imidazol-5-yl)-7-(3,5-dimethylisoxazol-4-yl)-6-methoxy-2-methyl-9H-pyrimido[4,5-b]indol-4-amine] | 1530 | 79.5 | 609 | 153 |
| COc1cc2c(cc1-c1c(C)noc1C)[nH]c1nc(C)nc(Nc3cc(C)ccc3C)c12 [Cpd. No. 238, 7-(3,5-dimethylisoxazol-4-yl)-N-(2,5-dimethylphenyl)-6-methoxy-2-methyl-9H-pyrimido[4,5-b]indol-4-amine] | 61 | 3 | 39 | 5 |
| CCc1nn(C)cc1Nc1nc(C)nc2[nH]c3cc(-c4c(C)noc4C)c(OC)cc3c12 [Cpd. No. 182, 7-(3,5-dimethylisoxazol-4-yl)-N-(3-ethyl-1-methyl-1H-pyrazol-4-yl)-6-methoxy-2-methyl-9H-pyrimido[4,5-b]indol-4-amine] | 98 | 23.6 | 34.8 | 15.6 |
| CCc1nn(C)c(Nc2nc(C)nc3[nH]c4cc(-c5c(C)noc5C)c(OC)cc4c23)c1C [Cpd. No. 169, 7-(3,5-dimethylisoxazol-4-yl)-N-(3-ethyl-1,4-dimethyl-1H-pyrazol-5-yl)-6-methoxy-2-methyl-9H-pyrimido[4,5-b]indol-4-amine] | 93.9 | 23 | 63.3 | 14.3 |
| COc1cc2c(cc1-c1c(C)noc1C)[nH]c1ccnc(Nc3cc(C4CC4)nn3C)c12 [Cpd. No. 255, N-(3-cyclopropyl-1-methyl-1H-pyrazol-5-yl)-7-(3,5-dimethylisoxazol-4-yl)-8-methoxy-5H-pyrido[4,3-b]indol-1-amine] | 26 | 8.5 | 12 | 10.5 |

Reference: patent US9580430B2, “9H-pyrimido[4,5-B]indoles and related analogs as BET bromodomain inhibitors” (THE REGENTS OF THE UNIVERSITY OF MICHIGAN, priority 2014, dated 2017)
